Laboratory results from ChEMBL document CHEMBL1201862, “PubChem BioAssay data set” (2004).
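Test compounds were applied to cells in 96-well plates for 48 hours at 5 doses. The concentration for 50% growth inhibition is given as GI50.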 Activity calls are given as the source filed them. No stated cut-off is given here; in the data, active = GI50 up to about 1.1 µM and inactive = higher.

Experiments:
Assay in all cases: growth of human tumour cells (NCI), 48 h
UO-31 = tested on: UO-31
HL-60 = tested on: HL-60
SF-268 = tested on: SF-268
Hs-578T = tested on: Hs-578T
COLO 205 = tested on: COLO 205
CCRF-CEM = tested on: CCRF-CEM
TK-10 = tested on: TK-10
NCI-H23 = tested on: NCI-H23
HCT-116 = tested on: HCT-116
SF-539 = tested on: SF-539
T47D = tested on: T47D
MCF7 = tested on: MCF7
SK-OV-3 = tested on: SK-OV-3
NCI/ADR-RES = tested on: NCI/ADR-RES
HT-29 = tested on: HT-29
NCI-H226 = tested on: NCI-H226
NCI-H522 = tested on: NCI-H522
EKVX = tested on: EKVX
HCC 2998 = tested on: HCC 2998
BT-549 = tested on: BT-549

SMILES	GI50 (UO-31)	GI50 (HL-60)	GI50 (SF-268)	GI50 (Hs-578T)	GI50 (COLO 205)	GI50 (CCRF-CEM)	GI50 (TK-10)	GI50 (NCI-H23)	GI50 (HCT-116)	GI50 (SF-539)	GI50 (T47D)	GI50 (MCF7)	GI50 (SK-OV-3)	GI50 (NCI/ADR-RES)	GI50 (HT-29)	GI50 (NCI-H226)	GI50 (NCI-H522)	GI50 (EKVX)	GI50 (HCC 2998)	GI50 (BT-549)
COc1ccc(C2C=C(c3ccccc3)Nc3nnnn32)cc1 (stereo unspecified)	90.8 µM (inactive)	> 100 µM (inactive)	44.9 µM (inactive)	40.6 µM (inactive)	> 100 µM (inactive)	> 100 µM (inactive)	6.27 µM (inactive)	> 100 µM (inactive)	13.5 µM (inactive)	23.7 µM (inactive)	19 µM (inactive)	20.2 µM (inactive)	31.7 µM (inactive)	> 100 µM (inactive)	18.1 µM (inactive)	64 µM (inactive)	17.9 µM (inactive)			
O=P(c1ccccc1)(c1ccccc1)C(NCc1ccccc1)c1ccc(F)cc1 (stereo unspecified)	12.8 µM (inactive)	17.5 µM (inactive)	19.7 µM (inactive)	28.4 µM (inactive)	14.7 µM (inactive)	16.9 µM (inactive)	15.9 µM (inactive)	13.6 µM (inactive)	12.8 µM (inactive)	17.7 µM (inactive)	26.5 µM (inactive)		16.1 µM (inactive)	14 µM (inactive)	13.2 µM (inactive)	16.2 µM (inactive)	11.5 µM (inactive)	12.7 µM (inactive)	16.1 µM (inactive)	
Oc1nc(CC(O)c2ccc(Cl)c(Cl)c2)cc(-c2ccccc2)n1 (stereo unspecified)	26.2 µM (inactive)	25.1 µM (inactive)	80.7 µM (inactive)		17.3 µM (inactive)	30.1 µM (inactive)	24.8 µM (inactive)	71.9 µM (inactive)	49.8 µM (inactive)	> 100 µM (inactive)			43.6 µM (inactive)		40.5 µM (inactive)	55.8 µM (inactive)	22.6 µM (inactive)	44.9 µM (inactive)	33.5 µM (inactive)	
CC1CC/C(=C\c2ccc(F)cc2)C2=C1C(c1ccc(F)cc1)n1c(s/c(=C\c3ccc(Cl)cc3)c1=O)=N2 (stereo unspecified)		> 100 µM (inactive)	> 100 µM (inactive)	> 100 µM (inactive)		> 100 µM (inactive)	> 100 µM (inactive)		> 100 µM (inactive)			> 100 µM (inactive)	> 100 µM (inactive)		> 100 µM (inactive)			> 100 µM (inactive)		
Cc1cccc(NC(=O)C(=O)C2C(=O)NC(=O)NC2=O)c1C	> 100 µM (inactive)	> 100 µM (inactive)	> 100 µM (inactive)		> 100 µM (inactive)	> 100 µM (inactive)	> 100 µM (inactive)	> 100 µM (inactive)	> 100 µM (inactive)	> 100 µM (inactive)			> 100 µM (inactive)		> 100 µM (inactive)	> 100 µM (inactive)	> 100 µM (inactive)	> 100 µM (inactive)	> 100 µM (inactive)	
Oc1ccc2ccccc2c1OCc1nnc(CCCCCCCCc2nnc(COc3c(O)ccc4ccccc34)o2)o1	> 100 µM (inactive)		99.3 µM (inactive)		> 100 µM (inactive)		> 100 µM (inactive)	> 100 µM (inactive)	20.7 µM (inactive)			59.2 µM (inactive)	> 100 µM (inactive)	> 100 µM (inactive)	> 100 µM (inactive)	> 100 µM (inactive)	> 100 µM (inactive)	> 100 µM (inactive)	> 100 µM (inactive)	> 100 µM (inactive)
CC1=NN(C(=O)CC(=O)Nc2cccc(C)c2)C(=O)C1/N=N/c1ccc(S(=O)(=O)CCOS(=O)(=O)O)cc1 (stereo unspecified)	2.93 µM (inactive)	1.33 µM (inactive)	5.57 µM (inactive)	4.18 µM (inactive)	2.45 µM (inactive)	0.422 µM (active)	13.1 µM (inactive)	0.76 µM (active)	0.373 µM (active)	2 µM (inactive)	> 34.5 µM (inactive)	0.746 µM (active)	0.326 µM (active)	0.344 µM (active)	0.767 µM (active)	0.718 µM (active)	0.291 µM (active)	32.2 µM (inactive)	2.17 µM (inactive)	
c1cc2c(ncc3cscc32)s1	> 70.6 µM (inactive)	> 100 µM (inactive)	> 100 µM (inactive)	> 100 µM (inactive)	> 100 µM (inactive)	> 100 µM (inactive)	> 100 µM (inactive)	> 68.4 µM (inactive)	> 31.6 µM (inactive)	> 100 µM (inactive)		> 100 µM (inactive)	> 10 µM (inactive)	> 100 µM (inactive)	> 100 µM (inactive)	> 61.7 µM (inactive)	> 100 µM (inactive)	> 100 µM (inactive)	> 100 µM (inactive)	
C=C1c2nc3ccccc3n2C=C(c2ccc(Cl)cc2)N1c1ccc(OC)cc1	6.38 µM (inactive)	76.7 µM (inactive)			21.8 µM (inactive)	> 100 µM (inactive)	4.82 µM (inactive)	9.95 µM (inactive)	6.97 µM (inactive)	5.87 µM (inactive)		7.4 µM (inactive)	10.7 µM (inactive)	3.48 µM (inactive)		5.46 µM (inactive)	4 µM (inactive)	8.51 µM (inactive)	8.85 µM (inactive)	2.67 µM (inactive)
CC(=O)Nc1ccc(C2C(C(=O)Nc3ccccc3C)=C(C)NC(C)=C2C(=O)Nc2ccccc2C)cc1	> 100 µM (inactive)	39.5 µM (inactive)	> 100 µM (inactive)		> 100 µM (inactive)	> 100 µM (inactive)	> 100 µM (inactive)	> 100 µM (inactive)	> 100 µM (inactive)	> 100 µM (inactive)			> 100 µM (inactive)		> 100 µM (inactive)	> 100 µM (inactive)	> 100 µM (inactive)	> 100 µM (inactive)	> 100 µM (inactive)	
CCOC(=O)CCC(NC(=O)c1ccc(NCc2ccc3nc(-c4ccccc4)c(Cl)nc3c2)cc1)C(=O)OCC (stereo unspecified)	22.9 µM (inactive)	17.4 µM (inactive)	53.8 µM (inactive)		20.5 µM (inactive)	25.6 µM (inactive)	83.9 µM (inactive)	79.8 µM (inactive)	40.7 µM (inactive)	35.8 µM (inactive)			> 100 µM (inactive)		> 100 µM (inactive)	32.4 µM (inactive)	19.5 µM (inactive)	46.3 µM (inactive)	92.3 µM (inactive)	
NC(=O)C(=O)N/N=C(\CC1(O)C(=O)Nc2ccccc21)c1ccc2ccccc2c1 (stereo unspecified)	40.1 µM (inactive)	16.6 µM (inactive)	40.9 µM (inactive)		22.8 µM (inactive)	20.3 µM (inactive)	50.2 µM (inactive)	29.6 µM (inactive)	9.48 µM (inactive)	48.9 µM (inactive)			46.9 µM (inactive)		34.4 µM (inactive)	41.4 µM (inactive)	18.7 µM (inactive)	33.1 µM (inactive)	41.5 µM (inactive)	
CC(=O)OC12C=CC(=O)N1c1ccccc1C(=O)O2 (stereo unspecified)	> 100 µM (inactive)	> 100 µM (inactive)	> 100 µM (inactive)		> 100 µM (inactive)	> 100 µM (inactive)	> 100 µM (inactive)	> 100 µM (inactive)	> 100 µM (inactive)	> 100 µM (inactive)			> 100 µM (inactive)		> 100 µM (inactive)	> 100 µM (inactive)	> 100 µM (inactive)	> 100 µM (inactive)	> 100 µM (inactive)	
CS/C=C\C(=O)O[C@H]1C[C@@H]2[C@@H](O)c3occ(C)c3C[C@]2(C)[C@@H](C)C1		14.9 µM (inactive)	28 µM (inactive)	29.6 µM (inactive)	17.9 µM (inactive)	27.3 µM (inactive)	50 µM (inactive)	30.3 µM (inactive)	17.5 µM (inactive)	21.7 µM (inactive)	24.4 µM (inactive)	31.9 µM (inactive)	36.6 µM (inactive)	18.5 µM (inactive)	22.6 µM (inactive)	13.4 µM (inactive)	23.2 µM (inactive)	37.5 µM (inactive)	29.2 µM (inactive)	
C=CC1(C)CCC(C(C)C(=O)C(C=C(C)C)OC(C)=O)C12C(=O)Oc1ccccc1C2=O (stereo unspecified)	34.4 µM (inactive)	19.7 µM (inactive)	62.1 µM (inactive)		29.4 µM (inactive)	27 µM (inactive)	> 100 µM (inactive)	46.7 µM (inactive)	31.1 µM (inactive)	> 100 µM (inactive)			82.2 µM (inactive)		35.3 µM (inactive)	58.5 µM (inactive)	31.6 µM (inactive)	60.8 µM (inactive)	82.4 µM (inactive)	
CN(C)Cc1cc(C(=O)/C=C/c2ccc(F)cc2)cc(CN(C)C)c1O	13.4 µM (inactive)	11.5 µM (inactive)	22.8 µM (inactive)	24.7 µM (inactive)		17 µM (inactive)	85.9 µM (inactive)	34.4 µM (inactive)	13.4 µM (inactive)	21.1 µM (inactive)	18 µM (inactive)	16.2 µM (inactive)		24.7 µM (inactive)	23 µM (inactive)	38.6 µM (inactive)	15.2 µM (inactive)	35.6 µM (inactive)	> 10 µM (inactive)	
Nc1ccc(-c2nn3c(COc4ccc(Cl)cc4)nnc3s2)cc1	84.9 µM (inactive)	> 100 µM (inactive)		25.3 µM (inactive)	74.5 µM (inactive)		> 100 µM (inactive)	> 100 µM (inactive)			> 100 µM (inactive)		> 100 µM (inactive)	> 100 µM (inactive)	> 100 µM (inactive)		65 µM (inactive)	86.9 µM (inactive)	> 100 µM (inactive)	
